Drawing on patent US20250295628A1 (priority 2022, published 2025), this text covers main component content for four molecules.

Molecules are shown by their SMILES.

The first data set in a line: Solid stability of compositions 1-11 and compounds 1A-11A: main component content over time under different conditions (Example 37, Table 32). Format: physicochemical. The conditions noted are these: 5 ± 3° C., 0 d (0 day content converted to 100%). On the procedure: Compositions 1-11 and compounds 1A-11A were placed at environments of −25° C., 5±3° C., 25±2° C./60±5% RH, 40±2° C./75±5% RH, 60° C. for 0 d, 5 d and 10 d (d refers to day), respectively, and changes of the main component content (the main component content of 0 day was converted to 100%) were measured, the results are shown in Table 32.
For `O=C([O-])C(CF)N(CC(O)C(O)C(O)C(O)CO)C(=S)[S][Na].[Na+]` (stereo not drawn) [Compound 1A], the main component content was determined as 100%.

In turn, `CC(C)C(C(=O)[O-])N(CC(O)C(O)C(O)C(O)CO)C(=S)[S][Na].[Na+]` (stereo not drawn) [Compound 2A] returned a main component content of 100%.

Take `O=C([O-])C(CCSCO)N(CC(O)C(O)C(O)C(O)CO)C(=S)[S][Na].[Na+]` (stereo not drawn) [Compound 4A]: the main component content was 100%.

For the molecule `O=C([O-])CCC(C(=O)[O-])N(CC(O)C(O)C(O)C(O)CO)C(=S)[S][Na].[Na+].[Na+]` (stereo not drawn) [Compound 5A], the main component content is 100%.

Still in this data set, the particulars now being: 5 ± 3° C., 5 d.
`O=C([O-])C(CF)N(CC(O)C(O)C(O)C(O)CO)C(=S)[S][Na].[Na+]` (stereo not drawn) [Compound 1A] gave a main component content of 99.5%.

The molecule `CC(C)C(C(=O)[O-])N(CC(O)C(O)C(O)C(O)CO)C(=S)[S][Na].[Na+]` (stereo not drawn) [Compound 2A] showed a main component content of 99.5%.

Molecule `O=C([O-])C(CCSCO)N(CC(O)C(O)C(O)C(O)CO)C(=S)[S][Na].[Na+]` (stereo not drawn) [Compound 4A] gave a main component content of 97.6%.

In the case of `O=C([O-])CCC(C(=O)[O-])N(CC(O)C(O)C(O)C(O)CO)C(=S)[S][Na].[Na+].[Na+]` (stereo not drawn) [Compound 5A], the main component content turned out to be 99.6%.

The same data set, now with this note: 5 ± 3° C., 10 d.
Molecule `O=C([O-])C(CF)N(CC(O)C(O)C(O)C(O)CO)C(=S)[S][Na].[Na+]` (stereo not drawn) [Compound 1A] had a main component content of 99.1%.

Take `CC(C)C(C(=O)[O-])N(CC(O)C(O)C(O)C(O)CO)C(=S)[S][Na].[Na+]` (stereo not drawn) [Compound 2A]: the main component content is listed as 98.1%.

`O=C([O-])C(CCSCO)N(CC(O)C(O)C(O)C(O)CO)C(=S)[S][Na].[Na+]` (stereo not drawn) [Compound 4A] gave a main component content of 95.3%.

On to `O=C([O-])CCC(C(=O)[O-])N(CC(O)C(O)C(O)C(O)CO)C(=S)[S][Na].[Na+].[Na+]` (stereo not drawn) [Compound 5A], for which the main component content stood at 98.7%.

Staying with this data set, now noted: 25 ± 2° C./60 ± 5% RH, 0 d (0 day content converted to 100%).
`O=C([O-])C(CF)N(CC(O)C(O)C(O)C(O)CO)C(=S)[S][Na].[Na+]` (stereo not drawn) [Compound 1A] showed a main component content of 100%.

`CC(C)C(C(=O)[O-])N(CC(O)C(O)C(O)C(O)CO)C(=S)[S][Na].[Na+]` (stereo not drawn) [Compound 2A] displayed a main component content of 100%.

`O=C([O-])C(CCSCO)N(CC(O)C(O)C(O)C(O)CO)C(=S)[S][Na].[Na+]` (stereo not drawn) [Compound 4A] registered a main component content of 100%.

For the molecule `O=C([O-])CCC(C(=O)[O-])N(CC(O)C(O)C(O)C(O)CO)C(=S)[S][Na].[Na+].[Na+]` (stereo not drawn) [Compound 5A], the main component content came out at 100%.

Staying with this data set, now noted: 25 ± 2° C./60 ± 5% RH, 5 d.
As for `O=C([O-])C(CF)N(CC(O)C(O)C(O)C(O)CO)C(=S)[S][Na].[Na+]` (stereo not drawn) [Compound 1A], the main component content is listed as 97.3%.

Turning to `CC(C)C(C(=O)[O-])N(CC(O)C(O)C(O)C(O)CO)C(=S)[S][Na].[Na+]` (stereo not drawn) [Compound 2A], the main component content is 91.4%.

For the molecule `O=C([O-])C(CCSCO)N(CC(O)C(O)C(O)C(O)CO)C(=S)[S][Na].[Na+]` (stereo not drawn) [Compound 4A], the main component content is reported as 92.8%.

Molecule `O=C([O-])CCC(C(=O)[O-])N(CC(O)C(O)C(O)C(O)CO)C(=S)[S][Na].[Na+].[Na+]` (stereo not drawn) [Compound 5A] registered a main component content of 97.8%.

Still in this data set, the particulars now being: 25 ± 2° C./60 ± 5% RH, 10 d.
Regarding `O=C([O-])C(CF)N(CC(O)C(O)C(O)C(O)CO)C(=S)[S][Na].[Na+]` (stereo not drawn) [Compound 1A], the main component content came out at 92.1%.

Regarding `CC(C)C(C(=O)[O-])N(CC(O)C(O)C(O)C(O)CO)C(=S)[S][Na].[Na+]` (stereo not drawn) [Compound 2A], the main component content turned out to be 82.5%.

The molecule `O=C([O-])C(CCSCO)N(CC(O)C(O)C(O)C(O)CO)C(=S)[S][Na].[Na+]` (stereo not drawn) [Compound 4A] had a main component content of 91.7%.

In the case of `O=C([O-])CCC(C(=O)[O-])N(CC(O)C(O)C(O)C(O)CO)C(=S)[S][Na].[Na+].[Na+]` (stereo not drawn) [Compound 5A], the main component content stood at 95.7%.

The data set is the same for the next values; noted with them: 40 ± 2° C./75 ± 5% RH, 0 d (0 day content converted to 100%).
`O=C([O-])C(CF)N(CC(O)C(O)C(O)C(O)CO)C(=S)[S][Na].[Na+]` (stereo not drawn) [Compound 1A] registered a main component content of 100%.

Consider `CC(C)C(C(=O)[O-])N(CC(O)C(O)C(O)C(O)CO)C(=S)[S][Na].[Na+]` (stereo not drawn) [Compound 2A], for which the main component content is 100%.

In turn, `O=C([O-])C(CCSCO)N(CC(O)C(O)C(O)C(O)CO)C(=S)[S][Na].[Na+]` (stereo not drawn) [Compound 4A] showed a main component content of 100%.

`O=C([O-])CCC(C(=O)[O-])N(CC(O)C(O)C(O)C(O)CO)C(=S)[S][Na].[Na+].[Na+]` (stereo not drawn) [Compound 5A] gave a main component content of 100%.

Staying with this data set, now noted: 40 ± 2° C./75 ± 5% RH, 5 d.
Molecule `O=C([O-])C(CF)N(CC(O)C(O)C(O)C(O)CO)C(=S)[S][Na].[Na+]` (stereo not drawn) [Compound 1A] displayed a main component content of 83.5%.

In the case of `CC(C)C(C(=O)[O-])N(CC(O)C(O)C(O)C(O)CO)C(=S)[S][Na].[Na+]` (stereo not drawn) [Compound 2A], the main component content is given as 94.1%.

Regarding `O=C([O-])C(CCSCO)N(CC(O)C(O)C(O)C(O)CO)C(=S)[S][Na].[Na+]` (stereo not drawn) [Compound 4A], the main component content was 83.4%.

For the molecule `O=C([O-])CCC(C(=O)[O-])N(CC(O)C(O)C(O)C(O)CO)C(=S)[S][Na].[Na+].[Na+]` (stereo not drawn) [Compound 5A], the main component content is recorded as 97.9%.

The same data set, now with this note: 40 ± 2° C./75 ± 5% RH, 10 d.
`O=C([O-])C(CF)N(CC(O)C(O)C(O)C(O)CO)C(=S)[S][Na].[Na+]` (stereo not drawn) [Compound 1A] came in with a main component content of 81.5%.

`CC(C)C(C(=O)[O-])N(CC(O)C(O)C(O)C(O)CO)C(=S)[S][Na].[Na+]` (stereo not drawn) [Compound 2A] registered a main component content of 90.1%.

Take `O=C([O-])C(CCSCO)N(CC(O)C(O)C(O)C(O)CO)C(=S)[S][Na].[Na+]` (stereo not drawn) [Compound 4A]: the main component content worked out at 80.8%.

On to `O=C([O-])CCC(C(=O)[O-])N(CC(O)C(O)C(O)C(O)CO)C(=S)[S][Na].[Na+].[Na+]` (stereo not drawn) [Compound 5A], for which the main component content is on record as 91.8%.

The same data set, now with this note: 60° C., 0 d (0 day content converted to 100%).
Molecule `O=C([O-])C(CF)N(CC(O)C(O)C(O)C(O)CO)C(=S)[S][Na].[Na+]` (stereo not drawn) [Compound 1A] yielded a main component content of 100%.

`CC(C)C(C(=O)[O-])N(CC(O)C(O)C(O)C(O)CO)C(=S)[S][Na].[Na+]` (stereo not drawn) [Compound 2A]: the main component content was 100%.

As to `O=C([O-])C(CCSCO)N(CC(O)C(O)C(O)C(O)CO)C(=S)[S][Na].[Na+]` (stereo not drawn) [Compound 4A], the main component content worked out at 100%.

`O=C([O-])CCC(C(=O)[O-])N(CC(O)C(O)C(O)C(O)CO)C(=S)[S][Na].[Na+].[Na+]` (stereo not drawn) [Compound 5A] had a main component content of 100%.

Still in this data set, the particulars now being: 60° C., 5 d.
The molecule `O=C([O-])C(CF)N(CC(O)C(O)C(O)C(O)CO)C(=S)[S][Na].[Na+]` (stereo not drawn) [Compound 1A] showed a main component content of 59.4%.

With `CC(C)C(C(=O)[O-])N(CC(O)C(O)C(O)C(O)CO)C(=S)[S][Na].[Na+]` (stereo not drawn) [Compound 2A], the main component content came out at 49.9%.

Molecule `O=C([O-])C(CCSCO)N(CC(O)C(O)C(O)C(O)CO)C(=S)[S][Na].[Na+]` (stereo not drawn) [Compound 4A] showed a main component content of 68.0%.

The molecule `O=C([O-])CCC(C(=O)[O-])N(CC(O)C(O)C(O)C(O)CO)C(=S)[S][Na].[Na+].[Na+]` (stereo not drawn) [Compound 5A] registered a main component content of 80.3%.

The data set is the same for the next values; noted with them: 60° C., 10 d.
The molecule `O=C([O-])C(CF)N(CC(O)C(O)C(O)C(O)CO)C(=S)[S][Na].[Na+]` (stereo not drawn) [Compound 1A] returned a main component content of 58.7%.

Molecule `CC(C)C(C(=O)[O-])N(CC(O)C(O)C(O)C(O)CO)C(=S)[S][Na].[Na+]` (stereo not drawn) [Compound 2A] had a main component content of 48.8%.

Regarding `O=C([O-])C(CCSCO)N(CC(O)C(O)C(O)C(O)CO)C(=S)[S][Na].[Na+]` (stereo not drawn) [Compound 4A], the main component content was found to be 64.7%.

Turning to `O=C([O-])CCC(C(=O)[O-])N(CC(O)C(O)C(O)C(O)CO)C(=S)[S][Na].[Na+].[Na+]` (stereo not drawn) [Compound 5A], the main component content is reported as 78.7%.

The data set is the same for the next values; noted with them: −25° C., 0 d (0 day content converted to 100%).
Regarding `O=C([O-])C(CF)N(CC(O)C(O)C(O)C(O)CO)C(=S)[S][Na].[Na+]` (stereo not drawn) [Compound 1A], the main component content was 100%.

`CC(C)C(C(=O)[O-])N(CC(O)C(O)C(O)C(O)CO)C(=S)[S][Na].[Na+]` (stereo not drawn) [Compound 2A] showed a main component content of 100%.

With `O=C([O-])C(CCSCO)N(CC(O)C(O)C(O)C(O)CO)C(=S)[S][Na].[Na+]` (stereo not drawn) [Compound 4A], the main component content amounted to 100%.

`O=C([O-])CCC(C(=O)[O-])N(CC(O)C(O)C(O)C(O)CO)C(=S)[S][Na].[Na+].[Na+]` (stereo not drawn) [Compound 5A] came in with a main component content of 100%.

Still in this data set, the particulars now being: −25° C., 5 d.
On to `O=C([O-])C(CF)N(CC(O)C(O)C(O)C(O)CO)C(=S)[S][Na].[Na+]` (stereo not drawn) [Compound 1A], for which the main component content is 100.2%.

`CC(C)C(C(=O)[O-])N(CC(O)C(O)C(O)C(O)CO)C(=S)[S][Na].[Na+]` (stereo not drawn) [Compound 2A] registered a main component content of 100.2%.

As to `O=C([O-])C(CCSCO)N(CC(O)C(O)C(O)C(O)CO)C(=S)[S][Na].[Na+]` (stereo not drawn) [Compound 4A], the main component content is on record as 100.2%.

Regarding `O=C([O-])CCC(C(=O)[O-])N(CC(O)C(O)C(O)C(O)CO)C(=S)[S][Na].[Na+].[Na+]` (stereo not drawn) [Compound 5A], the main component content was found to be 100.7%.

The same data set, now with this note: −25° C., 10 d.
The molecule `O=C([O-])C(CF)N(CC(O)C(O)C(O)C(O)CO)C(=S)[S][Na].[Na+]` (stereo not drawn) [Compound 1A] returned a main component content of 100.1%.

As to `CC(C)C(C(=O)[O-])N(CC(O)C(O)C(O)C(O)CO)C(=S)[S][Na].[Na+]` (stereo not drawn) [Compound 2A], the main component content was found to be 99.8%.

`O=C([O-])C(CCSCO)N(CC(O)C(O)C(O)C(O)CO)C(=S)[S][Na].[Na+]` (stereo not drawn) [Compound 4A] had a main component content of 100.5%.

`O=C([O-])CCC(C(=O)[O-])N(CC(O)C(O)C(O)C(O)CO)C(=S)[S][Na].[Na+].[Na+]` (stereo not drawn) [Compound 5A] gave a main component content of 101.1%.
